Measurements as given in ChEMBL document CHEMBL5154758, “Structure-Activity Relationship Study of Indolin-5-yl-cyclopropanamine Derivatives as Selective Lysine Specific Demethylase 1 (LSD1) Inhibitors” (J Med Chem, 2022).
The source made the active and inactive calls. The rule behind the calls is not given here.

How the values were obtained:
[1] = biological target: T1, Amine oxidase [flavin-containing] A (Homo sapiens, UniProt P21397); assay: biochemical
T1 sequence (P21397 whole entry): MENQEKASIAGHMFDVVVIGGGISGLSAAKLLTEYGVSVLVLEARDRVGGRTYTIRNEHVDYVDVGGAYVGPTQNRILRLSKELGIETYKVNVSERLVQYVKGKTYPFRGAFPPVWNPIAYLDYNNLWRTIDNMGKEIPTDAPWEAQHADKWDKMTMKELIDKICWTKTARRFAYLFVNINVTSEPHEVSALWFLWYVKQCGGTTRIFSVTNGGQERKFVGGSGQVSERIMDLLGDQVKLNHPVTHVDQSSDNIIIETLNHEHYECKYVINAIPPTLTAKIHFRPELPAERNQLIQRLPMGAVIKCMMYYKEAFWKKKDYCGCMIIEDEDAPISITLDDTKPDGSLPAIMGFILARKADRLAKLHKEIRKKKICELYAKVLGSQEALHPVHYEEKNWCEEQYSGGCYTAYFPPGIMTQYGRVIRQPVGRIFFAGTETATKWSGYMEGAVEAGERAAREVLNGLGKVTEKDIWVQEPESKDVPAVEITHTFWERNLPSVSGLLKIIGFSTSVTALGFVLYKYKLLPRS
Description: Inhibition of human recombinant MAO-A expressed in baculovirus infected BTI insect cells using luminogenic MAO substrate incubated for 1 hr by luciferin-based luminescence assay

[2] = biological target: T2, Amine oxidase [flavin-containing] B (Homo sapiens, UniProt P27338); assay: biochemical
T2 sequence (P27338 whole entry): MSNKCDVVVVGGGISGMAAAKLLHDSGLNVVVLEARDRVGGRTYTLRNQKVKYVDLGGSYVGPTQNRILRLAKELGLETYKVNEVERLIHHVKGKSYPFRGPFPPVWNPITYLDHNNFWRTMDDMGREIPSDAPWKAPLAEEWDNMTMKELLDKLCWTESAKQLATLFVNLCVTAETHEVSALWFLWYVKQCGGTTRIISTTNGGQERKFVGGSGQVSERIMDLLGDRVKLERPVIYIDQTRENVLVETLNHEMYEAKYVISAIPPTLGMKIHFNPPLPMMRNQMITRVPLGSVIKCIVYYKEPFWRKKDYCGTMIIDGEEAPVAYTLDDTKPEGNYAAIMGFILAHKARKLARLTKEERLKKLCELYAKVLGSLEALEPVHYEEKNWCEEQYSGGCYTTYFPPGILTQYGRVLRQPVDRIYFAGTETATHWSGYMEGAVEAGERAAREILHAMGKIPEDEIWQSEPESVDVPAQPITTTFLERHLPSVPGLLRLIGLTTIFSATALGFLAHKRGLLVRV
Description: Inhibition of human recombinant MAO-B expressed in baculovirus infected BTI insect cells using luminogenic MAO substrate incubated for 1 hr by luciferin-based luminescence assay

MV4-11 [3] = assay: Induction of differentiation of human MV4-11 cells assessed as morphological changes by measuring segmented nucleus at 5 uM incubated for 240 hrs by Wright-Giemsa staining based microscopy; assay type: functional, cell-based
[4] = biological target: T3, Lysine-specific histone demethylase 2 (Homo sapiens, UniProt Q8NB78); assay: Inhibition of recombinant human full length LSD2 using biotinylated H3K4Me2 peptide as substrate by TR-FRET assay
T3 sequence (Q8NB78 whole entry): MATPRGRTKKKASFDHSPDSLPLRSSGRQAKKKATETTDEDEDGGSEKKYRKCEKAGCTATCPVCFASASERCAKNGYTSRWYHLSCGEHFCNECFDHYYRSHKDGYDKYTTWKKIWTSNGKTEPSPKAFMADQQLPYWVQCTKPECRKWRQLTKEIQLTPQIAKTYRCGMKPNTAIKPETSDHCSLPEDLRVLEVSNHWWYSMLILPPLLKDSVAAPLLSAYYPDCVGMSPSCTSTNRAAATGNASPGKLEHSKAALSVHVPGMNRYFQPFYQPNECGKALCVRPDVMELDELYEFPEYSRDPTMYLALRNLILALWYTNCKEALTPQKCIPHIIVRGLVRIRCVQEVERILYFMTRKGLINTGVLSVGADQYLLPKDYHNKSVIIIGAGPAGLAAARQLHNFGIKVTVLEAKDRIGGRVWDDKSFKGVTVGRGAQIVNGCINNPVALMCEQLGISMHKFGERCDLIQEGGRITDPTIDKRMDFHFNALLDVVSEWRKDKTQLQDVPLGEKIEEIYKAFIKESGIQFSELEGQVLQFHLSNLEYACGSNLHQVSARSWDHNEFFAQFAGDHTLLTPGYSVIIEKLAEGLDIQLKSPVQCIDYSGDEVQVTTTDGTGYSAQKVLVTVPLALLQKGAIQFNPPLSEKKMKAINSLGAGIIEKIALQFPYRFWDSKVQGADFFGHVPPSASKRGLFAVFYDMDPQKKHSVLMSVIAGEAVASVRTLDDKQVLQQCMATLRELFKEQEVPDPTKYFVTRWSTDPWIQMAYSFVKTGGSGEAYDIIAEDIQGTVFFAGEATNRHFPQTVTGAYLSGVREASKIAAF

MV4-11 [5] = assay: Activation of CD86 expression in human MV4-11 cells incubated for 24 hrs by qRT-PCR analysis; assay type: functional, cell-based; conditions: MV4-11, 24 h
MV4-11 [6] = assay: Induction of differentiation of human MV4-11 cells assessed as morphological changes by measuring reduction in nuclear to cytoplasmic ratio at 5 uM incubated for 240 hrs by Wright-Giemsa staining based microscopy; assay type: functional, cell-based
[7] = Upregulation of CD86 expression in human MV4-11 cells assessed as fold change in CD86 expression at IC50 incubated for 24 hrs by qRT-PCR analysis relative to control; assay type: functional
[8] = biological target: Lysine-specific histone demethylase 1A (Homo sapiens) (UniProt O60341); conditions: dose 300.0 nM, time 1.0 hrs
[9] = biological target: T2, Amine oxidase [flavin-containing] B; assay: Inhibition of human MAOB
RPMI-8226 = assay: Antiproliferative activity against human RPMI-8226 cells assessed as inhibition of cell growth incubated for 240 hrs by MTS assay; assay type: functional, cell-based; conditions: RPMI-8226, 240 h
MV4-11 [10] = assay: Antiproliferative activity against human MV4-11 cells assessed as inhibition of cell growth incubated for 240 hrs by MTS assay; assay type: functional, cell-based; conditions: MV4-11, 240 h
[11] = biological target: T1, Amine oxidase [flavin-containing] A; assay: Inhibition of human MAOA
[12] = biological target: T3, Lysine-specific histone demethylase 2; assay: Inhibition of human LSD2
MV4-11 [13] = assay: Induction of differentiation of human MV4-11 cells assessed as morphological changes by measuring reduction in nuclear to cytoplasmic ratio at 2.5 uM incubated for 240 hrs by Wright-Giemsa staining based microscopy; assay type: functional, cell-based
MV4-11 [14] = assay: In vivo antitumor activity against human MV4-11 cells xenografted in nu/nu mouse assessed as relative tumor volume at 20 mg/kg, po qd measured after 15 days (reference value: 6.85 +/- 1.84 ); assay type: functional; conditions: time 15 day
[15] = Drug metabolism in human liver microsomes assessed as N-acetyl M2 metabolite formation at 3 uM incubated for 3 hrs by UPLC/Q-TOF MS analysis; assay type: ADME, Microsome
[16] = Drug metabolism in monkey liver microsomes assessed as amino dealkylation of parent compound causing M1 metabolite formation at 3 uM incubated for 3 hrs by UPLC/Q-TOF MS analysis; assay type: ADME, Macaca mulatta, Microsome; conditions: rhesus monkey
[17] = Drug metabolism in monkey liver microsomes assessed as N-acetyl M2 metabolite formation at 3 uM incubated for 3 hrs by UPLC/Q-TOF MS analysis; assay type: ADME, Macaca mulatta, Microsome; conditions: rhesus monkey
[18] = Metabolic stability in mouse hepatocytes at 3 uM incubated for 3 hrs by UPLC/Q-TOF MS analysis; assay type: ADME, cell-based, Hepatocyte
MV4-11 [19] = assay: In vivo antitumor activity against human MV4-11 cells xenografted in nu/nu mouse assessed as tumor volume at 20 mg/kg, po qd measured on day 1 (reference value: 154 +/- 53 mm3); assay type: functional; conditions: time 1 day
[20] = Half life in ICR mouse at 20 mg/kg, po measured upto 24 hrs by LC-MS/MS analysis; assay type: ADME, organism-based; conditions: in vivo
[21] = AUC (0 to infinity) in ICR mouse at 20 mg/kg, po measured upto 24 hrs by LC-MS/MS analysis; assay type: ADME, organism-based; set-up: dose 20 mg/kg, time < 24 hrs, route po; conditions: in vivo
[22] = Metabolic stability in rat hepatocytes at 3 uM incubated for 3 hrs by UPLC/Q-TOF MS analysis; assay type: ADME, cell-based, Hepatocyte
MV4-11 [23] = assay: In vivo antitumor activity against human MV4-11 cells xenografted in nu/nu mouse assessed as tumor volume at 10 mg/kg, po qd measured on day 1 (reference value: 154 +/- 53 mm3); assay type: functional; conditions: time 1 day
MV4-11 [24] = assay: In vivo antitumor activity against human MV4-11 cells xenografted in nu/nu mouse assessed as relative tumor volume at 10 mg/kg, po qd measured after 15 days (reference value: 6.85 +/- 1.84 ); assay type: functional; conditions: time 15 day
MV4-11 [25] = assay: In vivo antitumor activity against human MV4-11 cells xenografted in nu/nu mouse assessed as T/C ratio at 20 mg/kg,po qd measured after 15 days relative to control; assay type: functional; conditions: time 15 day
MV4-11 [26] = assay: In vivo antitumor activity against human MV4-11 cells xenografted in nu/nu mouse assessed as T/C ratio at 10 mg/kg, po qd measured after 15 days relative to control; assay type: functional; conditions: time 15 day
[27] = Metabolic stability in dog hepatocytes at 3 uM incubated for 3 hrs by UPLC/Q-TOF MS analysis; assay type: ADME, cell-based, Canis lupus familiaris, Hepatocyte
MV4-11 [28] = assay: In vivo antitumor activity against human MV4-11 cells xenografted in nu/nu mouse assessed as tumor volume at 10 mg/kg, po qd measured on day 15 (reference value: 959 +/- 111 mm3); assay type: functional; conditions: time 15 day
MV4-11 [29] = assay: Induction of differentiation of human MV4-11 cells assessed as morphological changes by measuring segmented nucleus at 2.5 uM incubated for 240 hrs by Wright-Giemsa staining based microscopy; assay type: functional, cell-based
[30] = Drug metabolism in human liver microsomes assessed as amino dealkylation of parent compound causing M1 metabolite formation at 3 uM incubated for 3 hrs by UPLC/Q-TOF MS analysis; assay type: ADME, Microsome
MV4-11 [31] = assay: In vivo antitumor activity against human MV4-11 cells xenografted in nu/nu mouse assessed as tumor volume at 20 mg/kg, po qd measured on day 15 (reference value: 959 +/- 111 mm3); assay type: functional; conditions: time 15 day
[32] = Cmax in ICR mouse at 20 mg/kg, po measured upto 24 hrs by LC-MS/MS analysis; assay type: ADME, organism-based; set-up: time < 24 hrs, dose 20 mg/kg, route po; conditions: in vivo

CCCCC(=O)N1CCc2cc(C3CC3NCC3CCNCC3)ccc21 (stereo unspecified)
IC50 [1]: > 100 µM | IC50 [2]: > 100 µM

O=S(=O)(c1ccc(-c2ccccc2)cc1)N1CCc2cc(C3CC3NCC3CCNCC3)ccc21 (trans isomer)
IC50 [1]: > 100 µM

O=C(O)c1ccc(CN2CCC(CN[C@@H]3C[C@H]3c3ccccc3)CC2)cc1 [GSK2879552]
IC50 [1]: > 100 µM | Activity (MV4-11 [3]): Active | IC50 [4]: > 100 µM | EC50 (MV4-11 [5]): 0.023 µM | Activity (MV4-11 [6]): Active | fold change (FC) [7]: 10.15 | IC50 [2]: > 100 µM | inhibition [8]: Active | IC50 [9]: > 100 µM | IC50 (RPMI-8226): > 20 µM | IC50 (MV4-11 [10]): 1.19 µM | IC50 [11]: > 100 µM | IC50 [12]: > 100 µM

O=S(=O)(C1CCCCC1)N1CCc2cc(C3CC3NCC3CCNCC3)ccc21 (stereo unspecified)
IC50 [1]: > 100 µM | IC50 [2]: > 100 µM

O=C(Cc1ccccc1)N1CCc2cc(C3CC3NCC3CCNCC3)ccc21 (trans isomer)
IC50 [1]: > 100 µM | IC50 [2]: > 100 µM

CCS(=O)(=O)N1CCc2cc(C3CC3NCC3CCNCC3)ccc21 (trans isomer)
IC50 [1]: > 100 µM | IC50 [2]: > 100 µM | IC50 (MV4-11 [10]): 2.52 µM

O=C(N[C@@H](CCCCNC1CC1c1ccccc1)C(=O)NCc1ccc(Cl)cc1)c1ccc(-c2ccccc2)cc1 (stereo partly specified)
IC50 [1]: > 100 µM | IC50 [2]: > 100 µM

CC1(CNC2CC2c2ccc3c(c2)CCN3S(=O)(=O)c2ccccc2)CCNCC1 (trans isomer)
IC50 [1]: 100 µM | IC50 [2]: > 100 µM

CC(C)(C)C(=O)N1CCc2cc(C3CC3NCC3CCNCC3)ccc21 (trans isomer)
IC50 [1]: > 100 µM | IC50 (RPMI-8226): > 20 µM | IC50 (MV4-11 [10]): 1.23 µM

O=S(=O)(c1ccccc1)N1CCc2cc(C3CC3NCC3CCNCC3)ccc21 (stereo unspecified)
Activity (MV4-11 [13]): Active | IC50 [1]: > 100 µM | Activity (MV4-11 [14]): 2.12 | Drug metabolism [15]: Metabolite_Detected | Drug metabolism [16]: Metabolite_Detected | EC50 (MV4-11 [5]): 0.47 µM | IC50 [2]: > 100 µM | Drug metabolism [17]: Metabolite_Detected | Stability [18]: Stable | Activity (MV4-11 [19]): 157 mm3 | half-life [20]: 5.32 h | AUC [21]: 619 ng·h/mL | IC50 (RPMI-8226): > 20 µM | Stability [22]: Stable | Activity (MV4-11 [23]): 156 mm3 | Activity (MV4-11 [24]): 3.58 | Activity (MV4-11 [25]): 30.89% | IC50 (MV4-11 [10]): 1.36 µM | Activity (MV4-11 [26]): 52.29% | Stability [27]: Stable | Activity (MV4-11 [28]): 522 mm3 | Activity (MV4-11 [29]): Active | Drug metabolism [30]: Metabolite_Detected | Activity (MV4-11 [31]): 334 mm3 | Cmax [32]: 85.7 ng/mL

O=S(=O)(c1ccccc1)N1CCc2cc(C3CC3NCC3CCN(Cc4ccccc4)CC3)ccc21 (trans isomer)
IC50 [2]: > 100 µM
